Laboratory results published in US12157727B2, “Substituted tetrahydroquinolin compounds as indoleamine 2,3-dioxygenase (IDO) inhibitors” (Merck Sharp & Dohme LLC, priority 2019, dated 2024).

molecular target: T1, IDO1 (Homo sapiens, UniProt P14902); test: IDO1 Human Whole Blood Assay; assay type: cell-based; conditions: LPS and IFNγ 100 ng/mL, overnight (18 h), kynurenine by LC/MS/MS
T1 construct: Human whole blood was drawn in sodium heparin coated tubes from healthy internal donors; from tissue; host or cells: human whole blood from healthy donors, stimulated with LPS and IFNγ
Method: Compounds to be tested were serially diluted in ten 3-fold steps in DMSO starting from 10 mM. 3 μL of compound dilutions or DMSO alone were then dispensed from the dilution plate into a polypropylene 96-well assay plate containing 97 μL of RPMI using an Echo 555 acoustic liquid handler (Labcyte). LPS and IFNγ was prepared in RPMI to a 10× of final conc. (1000 ng/mL), final concentration is 100 ng/mL.
Human whole blood was drawn in sodium heparin coated tubes from healthy internal donors. 240 μL of blood was transferred to each of the wells of a v-bottom 96 well plate. 30 μL of compound was transferred from intermediate dilution plate, and incubated for 15 min. 30 μL from stimulants was then transferred to blood and mixed thoroughly. Plate was covered with breathable membrane and incubated at 37° C. for overnight (18 h).
On day 2 isotope labeled standard of kynurenine and tryptophan was made in water at 10×concentration and 30 μL was added to the blood at 3 μM final concentration. The assay plates were centrifuged at 300×G for 10 min with no brake to separate plasma from red blood cells. 60 μL of plasma samples was removed without disturbing red blood cells. Plasma was diluted with RPMI in 1:1 ratio and proteins were precipitated out with two volumes of Acetonitrile. The plates were centrifuged at 4000×G for 60 min. 20 μL of supernatant was carefully transferred to a 384 well plate contain 40 μL of 0.1% formic acid in water and analyzed by LC/MS/MS.
LC/MS/MS analyses were performed using Thermo Fisher's LX4-TSQ Quantum Ultra system. This system consists of four Agilent binary high-performance liquid chromatography (HPLC) pumps and a TSQ Quantum Ultra triple quadrupole MS/MS instrument. For each sample, 5 μL were injected onto an Atlantis T3 column (2.1 mm×150 mm, 3 μm particle size) from Waters. The mobile phase gradient pumped at 0.8 mL/min was used to elute the analytes from the column at 25° C. The elution started at 0% B increasing linearly to 25% B at 6.5 min, holding at 25% for 1 min, re-equilibrating to 10 min. Mobile phase A consisted of 0.1% formic acid in water. Mobile phase B consisted of 0.1% of formic acid in acetonitrile. Data was acquired in positive mode using a HESI interface. The operational parameters for the TSQ Quantum Ultra instrument were a spray voltage of 4000 V, capillary temperature of 380° C., vaporizer temperature 400° C., shealth gas 60 arbitrary units, Aux gas 20 arbitrary units, tube lens 85 and collision gas 1.2 mTorr. SRM chromatograms of kynurenine (Q1: 209.2>Q3:94.0) and internal standard (Q1: 215.3>Q3:98.2) were collected for 90 sec. The peak area was integrated by Xcalibur Quan software. The ratios between the kynurenine generated in the reaction and 2D6-Kynurenine spiked-in internal standard were used to generate percentage inhibition and IC50 values. Compounds were titrated and IC50' s were calculated by 4 parameter sigmoidal curve fitting formula.

T1 sequence (P14902 whole entry): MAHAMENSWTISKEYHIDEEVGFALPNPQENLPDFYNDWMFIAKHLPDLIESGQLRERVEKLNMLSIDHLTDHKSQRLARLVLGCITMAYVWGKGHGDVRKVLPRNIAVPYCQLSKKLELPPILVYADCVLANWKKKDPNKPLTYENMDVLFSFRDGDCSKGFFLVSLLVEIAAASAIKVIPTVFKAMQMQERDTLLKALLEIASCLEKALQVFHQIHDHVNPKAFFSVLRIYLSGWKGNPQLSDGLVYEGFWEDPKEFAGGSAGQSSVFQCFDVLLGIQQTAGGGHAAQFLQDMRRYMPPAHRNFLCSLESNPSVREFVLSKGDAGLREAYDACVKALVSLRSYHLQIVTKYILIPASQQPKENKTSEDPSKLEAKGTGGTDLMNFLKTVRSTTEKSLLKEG

| Structure (SMILES) | IC50 |
| --- | --- |
| N#Cc1ccc2nc(C3(c4ccc5c(n4)CCCN5C(=O)OC4CC4)CCC3)[nH]c2c1 [Example 20, cyclopropyl 6-[1-(6-cyano-1H-benzimidazol-2-yl)cyclobutyl]-3,4-dihydro-1,5-naphthyridine-1(2H)-carboxylate] | 35 nM |
| N#Cc1ccc2nc(C3(c4ccc5c(c4)CCCN5C(=O)C4CC4)CCC3)[nH]c2c1 [Example 4, 2-{1-[1-(cyclopropane-carbonyl)-1,2,3,4-tetrahydroquinolin-6-yl]cyclobutyl}-1H-benzimidazole-6-carbonitrile] | 27 nM |
| O=C([C@H]1CCCO1)N1CCCc2cc(C3(c4nc5ncc(C(F)(F)F)cc5[nH]4)CCC3)ccc21 [Example 3, [(2R)-oxolan-2-yl][6-{1-[6-(trifluoromethyl)-1H-imidazo[4,5-b]pyridin-2-yl]cyclobutyl}-3,4-dihydroquinolin-1(2H)-yl]methanone] | 30.7 nM |
| CCOC(=O)N1CCCc2nc(C3(c4nc5cc(C(F)(F)F)cnc5[nH]4)CCC3)ccc21 [Example 19, ethyl 6-{1-[6-(trifluoromethyl)-3H-imidazo[4,5-b]pyridin-2-yl]cyclobutyl}-3,4-dihydro-1,5-naphthyridine-1(2H)-carboxylate] | 274 nM |
| O=C(OC1CC1)N1CCCc2nc(C3(c4nc5ccc(Cl)cc5[nH]4)CCC3)ccc21 [Example 21, cyclopropyl 6-[1-(6-chloro-1H-benzimidazol-2-yl)cyclobutyl]-3,4-dihydro-1,5-naphthyridine-1(2H)-carboxylate] | 44.1 nM |
| O=C(c1ccccc1Cl)N1CCCc2nc(C3(c4nc5ncc(C(F)(F)F)cc5[nH]4)CCC3)ccc21 [Example 17, (2-chlorophenyl)[6-{1-[6-(trifluoromethyl)-1H-imidazo[4,5-b]pyridin-2-yl]cyclobutyl}-3,4-dihydro-1,5-naphthyridin-1(2H)-yl]methanone] | 47.8 nM |
| COC(=O)N1CCCc2cc(C3(c4nc5ncc(C(F)(F)F)cc5[nH]4)CCC3)ccc21 [Example 5, Methyl 6-(1-(6-(trifluoromethyl)-1H-imidazo[4,5-b]pyridin-2-yl)cyclobutyl)-3,4-dihydroquinoline-1(2H)-carboxylate] | 229 nM |
| O=C([C@H]1CCCCO1)N1CCCc2nc(C3(c4nc5ncc(C(F)(F)F)cc5[nH]4)CCC3)ccc21 [Example 16, (R)-(tetrahydro-2H-pyran-2-yl)(6-(1-(6-(trifluoromethyl)-1H-imidazo[4,5-b]pyridin-2-yl)cyclobutyl)-3,4-dihydro-1,5-naphthyridin-1(2H)-yl)methanone] | 14.1 nM |
| O=C(C1CC1)N1CCCc2cc(C3(c4nc5ncc(C(F)(F)F)cc5[nH]4)CCC3)ccc21 [Example 1, Cyclopropyl(6-(1-(6-(trifluoromethyl)-1H-imidazo[4,5-b]pyridin-2-yl)cyclobutyl)-3A-dihydroquinolin-1(2H)-yl)methanone] | 186 nM |
| O=C([C@@H]1CCCCO1)N1CCCc2nc(C3(c4nc5ncc(C(F)(F)F)cc5[nH]4)CCC3)ccc21 [Example 15, (S)-(tetrahydro-2H-pyran-2-yl)(6-(1-(6-(trifluoromethyl)-1H-imidazo[4,5-b]pyridin-2-yl)cyclobutyl)-3,4-dihydro-1,5-naphthyridin-1(2H)-yl)methanone] | 26.1 nM |
| O=C(OC1CC1)N1CCCc2nc(C3(c4nc5ncc(C(F)(F)F)cc5[nH]4)CCC3)ccc21 [Example 23, cyclopropyl 6-{1-[6-(trifluoromethyl)-1H-imidazo[4,5-b]pyridin-2-yl]cyclobutyl}-3,4-dihydro-1,5-naphthyridine-1(2H)-carboxylate] | 64.2 nM |
| O=C(OC1CC1)N1CCCc2nc(C3(c4nc5ncc(Cl)cc5[nH]4)CCC3)ccc21 [Example 22, cyclopropyl 6-[1-(6-chloro-1H-imidazo[4,5-b]pyridin-2-yl)cyclobutyl]-3,4-dihydro-1,5-naphthyridine-1(2H)-carboxylate] | 60.5 nM |
| N#Cc1cnc2nc(C3(c4ccc5c(n4)CCCN5C(=O)OC4CC4)CCC3)[nH]c2c1 [Example 24, cyclopropyl 6-[1-(6-cyano-1H-imidazo[4,5-b]pyridin-2-yl)cyclobutyl]-3,4-dihydro-1,5-naphthyridine-1(2H)-carboxylate] | 121 nM |
| COC(=O)N1CCCc2nc(C3(c4nc5cc(C(F)(F)F)cnc5[nH]4)CCC3)ccc21 [Example 18, methyl 6-(1-(6-(trifluoromethyl)-3H-imidazo[4,5-b]pyridin-2-yl)cyclobutyl)-3,4-dihydro-1,5-naphthyridine-1(2H),-carboxylate] | 494 nM |
| O=C(C1CC1)N1CCCc2nc(C3(c4nc5cc(C(F)(F)F)cnc5[nH]4)CCC3)ccc21 [Example 13, Cyclopropyl(6-(1-(6-(trifluoromethyl)-3H-imidazo[4,5-b]pyridin-2-yl)cyclobutyl)-3,4-dihydro-1,5-naphthyridin-1(2H),-yl)methanone] | 56.3 nM |
| O=C(C1CC1)N1CCCc2cc(C3(c4nc5ccc(Cl)cc5[nH]4)CCC3)ccc21 [Example 2, {6-[1-(6-chloro-1H-benzimidazol-2-yl)cyclobutyl]-3,4-dihydroquinolin-1(2H)-yl}(cyclopropyl) methanone] | 132 nM |

Second part, the compound after the results:

| IC50 | Structure (SMILES) |
| --- | --- |
| 355 nM | Cc1nccc(N2CCCc3nc(C4(c5nc6cc(C(F)(F)F)cnc6[nH]5)CCC4)ccc32)n1 [Example 30, 1-(2-methylpyrimidin-4-yl)-6-(1-(6-(trifluoromethyl)-3H-imidazo[4,5-b]pyridin-2-vyl)cyclobutyl)-1,2,3,4-tetrahydro-1,5-naphthyridine] |
| 53.9 nM | FC(F)(F)c1nccc(N2CCCc3nc(C4(c5nc6cc(Cl)cnc6[nH]5)CCC4)ccc32)n1 [Example 35, 6-[1-(6-chloro-3H-imidazo[4,5-b]pyridin-2-yl)cyclobutyl]-1-[2-(trifluoromethyl)pyrimidin-4-yl]-1,2,3,4-tetrahydro-1,5-naphthyridine] |
| 55 nM | C[C@@H](c1ccc2c(n1)CCCN2C(=O)OC1CC1)c1nc2ccc(Cl)cc2[nH]1 [Example 26, cyclopropyl (S)-6-(1-(6-chloro-1H-benzo[d]imidazol-2-yl)ethyl)-3,4-dihydro-1,5-naphthyridine-1(2H)-carboxylate] |
| 117 nM | CC(c1ccc2c(n1)CCCN2C(=O)OC1CC1)c1nc2ccc(Cl)cc2[nH]1 (stereo not drawn) [Example 25, cyclopropyl 6-(1-(6-chloro-1H-benzo[d]imidazol-2-yl)ethyl)-3,4-dihydro-1,5-naphthyridine-1(2H)-carboxylate] |
| 56.8 nM | C[C@H](c1ccc2c(n1)CCCN2C(=O)OC1CC1)c1nc2ccc(Cl)cc2[nH]1 [Example 27, cyclopropyl (R)-6-(1-(6-chloro-1H-benzo[d]imidazol-2-yl)ethyl)-3,4-dihydro-1,5-naphthyridine-1(2H)-carboxylate] |
| 71.3 nM | N#Cc1ccc2nc(C3(c4ccc5c(n4)CCCN5c4ccnc(C(F)(F)F)n4)CC4(CC4)C3)[nH]c2c1 [Example 41, 2-(5-(5-(2-(trifluoromethyl)pyrimidin-4-yl)-5,6,7,8-tetrahydro-1,5-naphthyridin-2-yl)spiro[2,3]hexan-5-yl)-1H-benzo[d]imidazole-6-carbonitrile] |
| 83.3 nM | FC(F)(F)c1nccc(N2CCCc3nc(C4(c5nc6cc(Cl)ccc6[nH]5)CCC4)ccc32)n1 [Example 33, 6-[1-(5-chloro-1H-benzimidazol-2-yl)cyclobutyl]-1-[2-(trifluoromethyl)pyrimidin-4-yl]-1,2,3,4-tetrahydro-1,5-naphthyridine] |
| 140 nM | Cc1nccc(N2CCCc3nc(C4(c5nc6cc(Cl)ccc6[nH]5)CCC4)ccc32)n1 [Example 34, 6-[1-(6-chloro-1H-benzimidazol-2-yl)cyclobutyl]-1-(2-methylpyrimidin-4-yl)-1,2,3,4-tetrahydro-1,5-naphthyridine] |
